Where two headings read alike, the source gives them in different places.
Columns and labels:
[1] = test system: Mycobacterium tuberculosis; type: cell-based
[2] = test system: Mycobacterium tuberculosis Erdman; test: Biofilm inhibition of Mycobacterium tuberculosis (ocular inspection); type: cell-based; settings: for inhibition at 10 µM: read-out: Average % Inhibition at 10 μM; for inhibition at 25 µM: read-out: Average % Inhibition at 25 μM; for minimal effective concentration: concentration at which full biofilm inhibition took place, replicate determinations in one cell
[3] = test system: Erdman Wild-Type Mycobacterium tuberculosis; type: cell-based
katGFSAA6 Mtb = test: Lawn of katGFSAA6 Mtb plated on agar (FIG. 9c-9f); type: cell-based, Mycobacterium tuberculosis
[4] = test system: Mycobacterium tuberculosis; type: cell-based; remark: listed apart in the source
Mtb = settings: cited from earlier work
[5] = biofilm inhibition, 10 μM, average of three or more measurements (100/50/0% scoring)
[6] = biofilm inhibition, 25 μM, average of three or more measurements (100/50/0% scoring)
[7] = biofilm inhibition, average of three or more measurements (100/50/0% scoring)

O=C(O)[C@@H]1CSc2c(C3CC3)c(Cc3cccc4ccccc34)cc(=O)n21 [(3R)-7-Cyclopropyl-6-[(1-naphthyl)methyl]-4-oxo-1-thia-3a-aza-3-indancarboxylic acid]
eradication of Mycobacterium tuberculosis (conclusion) [1]: did not eradicate

O=C(O)[C@@H]1CSc2c(C3CC3)c(Cc3cccc4ccccc34)cc(=O)n21 [Example 1, (3R)-7-Cyclopropyl-6-[(1-naphthyl)methyl]-4-oxo-1-thia-3a-aza-3-indancarboxylic acid]
inhibition at 10 µM [2]: 100% | inhibition at 25 µM [2]: 100% | doubling time [3]: 52 h | fold less Mtb in the culture as compared to controls (CFU) [3]: 7.6 fold | growth of katGFSAA6 strain on agar (katGFSAA6 Mtb): able to grow

O=C(O)[C@@H]1CSc2c(C3CC3)c(COc3cccc4ccccc34)cc(=O)n21 [Example 7, (3R)-7-Cyclopropyl-6-[(1-naphthyloxy)methyl]-4-oxo-1-thia-3a-aza-3-indancarboxylic acid]
inhibition at 10 µM [2, 5]: 50% | inhibition at 25 µM [2, 6]: 100% | inhibition at 50 µM [2, 7]: 100% | minimal effective concentration [2]: 25 µM

O=C(O)[C@H]1CSc2c(C3CC3)c(Cc3cccc4ccccc34)cc(=O)n21 [Example 5, (3S)-7-Cyclopropyl-6-[(1-naphthyl)methyl]-4-oxo-1-thia-3a-aza-3-indancarboxylic acid]
inhibition at 10 µM [2, 5]: 100% | inhibition at 25 µM [2, 6]: 100% | inhibition at 50 µM [2, 7]: 100% | minimal effective concentration [2]: 5 µM

CC(C)COc1c(Cc2cccc3ccccc23)cc(=O)n2c1SC[C@H]2C(=O)O [Example 48, (3R)-7-Isobutoxy-6-[(1-naphthyl)methyl]-4-oxo-1-thia-3a-aza-3-indancarboxylic acid]
inhibition at 50 µM [2, 7]: 50%

O=C(O)[C@@H]1CSc2c(C3CC3)c(Cc3ccc(F)c4ccccc34)cc(=O)n21 [Example 3, (3R)-7-Cyclopropyl-6-[(4-fluoro-1-naphthyl)methyl]-4-oxo-1-thia-3a-aza-3-indancarboxylic acid]
inhibition at 10 µM [2, 5]: 100% | inhibition at 25 µM [2, 6]: 100% | inhibition at 50 µM [2, 7]: 100% | minimal effective concentration [2]: 50 µM

CO[C@H]1Sc2c(C3CC3)c(Cc3cccc4ccccc34)cc(=O)n2[C@@H]1C(=O)O [Example 35, (2S,3R)-7-Cyclopropyl-2-methoxy-6-[(1-naphthyl)methyl]-4-oxo-1-thia-3a-aza-3-indancarboxylic acid]
inhibition at 25 µM [2, 6]: 25% | inhibition at 100 µM [2, 7]: 75% | minimal effective concentration [2]: 50 µM

O=C(NS(=O)(=O)c1ccccc1)[C@@H]1CSc2c(C3CC3)c(Cc3cccc4ccccc34)cc(=O)n21 [Example 22, {(3R)-7-Cyclopropyl-6-[(1-naphthyl)methyl]-4-oxo-1-thia-3a-aza-3-indanyl}(phenylsulfonylamino)formaldehyde]
inhibition at 25 µM [2, 6]: 38% | inhibition at 50 µM [2, 7]: 25%

Cc1cc(=O)n2c(c1C1CC1)SC[C@H]2C(=O)O [Example 24, (3R)-7-Cyclopropyl-6-methyl-4-oxo-1-thia-3a-aza-3-indancarboxylic acid]
inhibition at 25 µM [2, 6]: 12% | inhibition at 50 µM [2, 7]: 62%

CN(C)c1c(Cc2cccc3ccccc23)cc(=O)n2c1SC[C@H]2C(=O)O [Example 40, (3R)-7-(Dimethylamino)-6-[(1-naphthyl)methyl]-4-oxo-1-thia-3a-aza-3-indancarboxylic acid]
inhibition at 10 µM [2, 5]: 50% | inhibition at 25 µM [2, 6]: 100% | inhibition at 50 µM [2, 7]: 50%

NC(=O)[C@@H]1CSc2c(C3CC3)c(Cc3cccc4ccccc34)cc(=O)n21 [Example 21, (3R)-7-Cyclopropyl-6-[(1-naphthyl)methyl]-4-oxo-1-thia-3a-aza-3-indancarboxamide]
inhibition at 10 µM [2, 5]: 12% | inhibition at 25 µM [2, 6]: 100% | inhibition at 50 µM [2, 7]: 100%

Cc1cccc(Cc2cc(=O)n3c(c2C2CC2)SC[C@H]3C(=O)O)c1C [Example 9, (3R)-7-Cyclopropyl-4-oxo-6-[(2,3-xylyl)methyl]-1-thia-3a-aza-3-indancarboxylic acid]
inhibition at 10 µM [2, 5]: 50% | inhibition at 25 µM [2, 6]: 87% | inhibition at 50 µM [2, 7]: 87% | minimal effective concentration [2]: 25 µM

O=c1cc(Cc2cccc3ccccc23)c(C2CC2)c2n1[C@H](c1nnn[nH]1)CS2 [Example 12, (3R)-7-Cyclopropyl-6-[(1-naphthyl)methyl]-3-(1H-1,2,3,4-tetrazol-5-yl)-1-thia-3a-aza-4-indanone]
inhibition at 10 µM [2, 5]: 12% | inhibition at 25 µM [2, 6]: 50% | inhibition at 50 µM [2, 7]: 87%

O=C(O)c1c(-c2ccsc2)sc2c(C3CC3)c(Cc3cccc4ccccc34)cc(=O)n12 [Example 6, 5-Cyclopropyl-4-[(1-naphthyl)methyl]-2-oxo-8-(3-thienyl)-7-thia-1-azabicyclo[4.3.0]nona-3,5,8-triene-9-carboxylic acid]
inhibition at 10 µM [2, 5]: 50% | inhibition at 25 µM [2, 6]: 88% | inhibition at 50 µM [2, 7]: 100% | inhibition at 100 µM [2, 7]: 100% | minimal effective concentration [2]: 30 µM

O=C(NNC(=O)C1CSc2c(C3CC3)c(Cc3cccc4ccccc34)cc(=O)n21)c1ccncc1 (stereo not shown) [Example 38, {7-Cyclopropyl-6-[(1-naphthyl)methyl]-4-oxo-1-thia-3a-aza-3-indanyl}(2-isonicotinoylhydrazino)formaldehyde]
inhibition at 10 µM [2, 5]: 100% | inhibition at 25 µM [2, 6]: 100% | inhibition at 50 µM [2, 7]: 100% | minimal effective concentration [2]: 25 µM

Cc1ccc(Cc2cc(=O)n3c(c2C2CC2)SC[C@H]3C(=O)O)c2ccccc12 [Example 4, (3R)-7-Cyclopropyl-6-[(4-methyl-1-naphthyl)methyl]-4-oxo-1-thia-3a-aza-3-indancarboxylic acid]
inhibition at 10 µM [2, 5]: 100% | inhibition at 25 µM [2, 6]: 100% | inhibition at 50 µM [2, 7]: 100% | minimal effective concentration [2]: 25 µM

COc1ccc2ccccc2c1Cc1cc(=O)n2c(c1C1CC1)SC[C@H]2C(=O)O [Example 49, (3R)-7-Cyclopropyl-6-[(2-methoxy-1-naphthyl)methyl]-4-oxo-1-thia-3a-aza-3-indancarboxylic acid]
minimal effective concentration [2]: 25 µM

O=c1cc(Cc2cccc3ccccc23)c(C2CC2)c2n1[C@H](CO)CS2 [Example 16, (3R)-7-Cyclopropyl-3-(hydroxymethyl)-6-[(1-naphthyl)methyl]-1-thia-3a-aza-4-indanone]
inhibition at 10 µM [2, 5]: 25% | inhibition at 25 µM [2, 6]: 62% | inhibition at 50 µM [2, 7]: 100%

Cn1cc(-c2c(COc3cccc4ccccc34)cc(=O)n3c2SCC3C(=O)O)c2ccccc21 (stereo not shown) [Example 29, 7-(1-Methyl-1H-indol-3-yl)-6-[(1-naphthyloxy)methyl]-4-oxo-1-thia-3a-aza-3-indancarboxylic acid]
minimal effective concentration [2]: 50 µM

CCC(CO)NCCNC(CC)COC(=O)C1CSc2c(C3CC3)c(Cc3cccc4ccccc34)cc(=O)n21 (stereo not shown) [Example 37, 2-{2-[1-(Hydroxymethyl)propylamino]ethylamino}butyl 7-cyclopropyl-6-[(1-naphthyl)methyl]-4-oxo-1-thia-3a-aza-3-indancarboxylate]
inhibition at 10 µM [2, 5]: 100% | inhibition at 25 µM [2, 6]: 100% | inhibition at 50 µM [2, 7]: 100%

O=C(O)[C@@H]1CSc2c(C3CC3)c(Cc3ccc4ccccc4c3)cc(=O)n21 [Example 15, (3R)-7-Cyclopropyl-6-[(2-naphthyl)methyl]-4-oxo-1-thia-3a-aza-3-indancarboxylic acid]
inhibition at 10 µM [2, 5]: 87% | inhibition at 25 µM [2, 6]: 100% | inhibition at 50 µM [2, 7]: 100% | minimal effective concentration [2]: 50 µM

NNC(=O)c1ccncc1 [INH, isonicotinylhydrazide, reference compound]
Mtb growth as measured by ODλ600 [3]: completely inhibited | culturable bacteria remaining (CFU) [3]: several thousand | growth of katGFSAA6 strain on agar (katGFSAA6 Mtb; agar plates containing INH, Example 1 or combination): able to grow | tuberculosis bacteria detected (ratio of CFU treated/untreated) ([4]; […], Example 1 50 microM, Example 19 25 microM): tuberculosis bacteria remained | eradication of Mycobacterium tuberculosis (conclusion) ([4]; conclusions from FIG. 5 and FIG. 6 experiments): did not eradicate | MIC (Mtb): 0.02 to 0.06 mg/L

From patent US20230115208A1, “RING-FUSED THIAZOLINO 2-PYRIDONES, METHODS FOR PREPARATION THEREOF AND THEIR USE IN THE TREATMENT AND/OR PREVENTION OF TUBERCULOSIS” (QURETECH BIO AB, priority 2016, published 2023)
